Experimental data published in patent US20150238483A1, “Traitement des neuronopathies motrices” (CENTRE NATIONAL DE LA RECHERCHE SCIENTIFIQUE- CNRS, priority 2012, published 2015).
Where a name gives a salt, the structure may show the parent alone. Read-outs that look alike come from different tables or passages of the source.

Key:
[1] = test system: immortalized SMA fibroblasts; test: Distribution of the SMN protein to Cajal bodies (CBs) in immortalized SMA fibroblasts, immunolabeling, cells counted; format: cell-based, human; settings: for induction factor of cells with SMN protein in CBs (DMSO = 1): 24 hours of treatment at 2 micrograms/ml, immortalized SMA fibroblasts; for Maximum induction: at 2 μg/ml, DMSO = 1; for Maximum induction / Dilution at EC50: immortalized type I line; for Dilution at EC50: dilution relative to 2 μg/ml
Procedure: This immortalization is described in the publication Lefebvre S, Burlet P, Viollet L, Bertrandy S, Huber C, Belser C and Munnich A. A novel association of the SMN protein with major non-ribosomal nucleolar proteins and its implication in spinal muscular atrophy. Hum Mol Genet (2002) 11 (9): 1017-1027.
The blockers of the invention are commercially available (for example from Sigma-Aldrich) and are sold in 96-well plates, at 2 milligrams per molecule per well to be dissolved in 1 ml of DMSO.
In order to determine whether the calcium channel blockers exerted a positive effect, the inventors counted the cells which had the SMN protein located in the CBs out of 100 cells randomly selected for each experiment.
This experiment was repeated three times.
A value of induction by a factor equal to 1 was arbitrarily assigned to DMSO.
In order to evaluate the relationship between the concentration (dose) and the effect (response) on the CBs of the immortalized SMA cells, the inventors constructed a dose-response curve for each of the molecules.

immortalized SMA cells = test: Co-immunolabeling of coilin and TMG cap: snRNPs at the level of CBs in immortalized SMA cells; format: cell-based, human; settings: 24 hours of treatment; chi-2, 0.001<p<0.01; n=300 cells
Procedure: Co-immunolabeling experiments similar to the previous ones were carried out on the immortalized SMA cells using two commercial antibodies, one specific for the coilin protein (CBs marker) and the other for the trimethylguanosine (TMG) cap of the small nuclear RNAs of snRNPs.
These tests show an increase in the SMN protein and in the snRNPs in Cajal bodies in the immortalized SMA line from the severe form of the disease (type I), induced by the calcium channel blockers of the invention. The mean value for the snRNPs is calculated from the three experiments (n=300 cells).

[2] = humans, cited from earlier work; for maximum plasma level: oral, 10 mg per day
[3] = test system: amyotrophic lateral sclerosis; settings: ALS patients; cited from earlier work

| Structure (SMILES) | induction factor of cells with SMN protein in CBs (DMSO = 1) [1] | Maximum induction [1] | Dilution at EC50 [1] | further results |
| --- | --- | --- | --- | --- |
| CCCCc1oc2ccccc2c1C(=O)c1cc(I)c(OCCN(CC)CC)c(I)c1 [Amiodarone hydrochloride, (2-butyl-3-benzofuranyl)[4-[2-(diethylamino)ethoxy]-3,5-diiodophenyl]methanone hydrochloride] | approximately 2.8 | 2.8 ± 1.0 | – | – |
| Fc1ccc(C(c2ccc(F)cc2)N2CCN(C/C=C/c3ccccc3)CC2)cc1 [Flunarizine dihydrochloride, flunarizine dihydrochloride] | approximately 4.8 | 4.8 ± 1.5 | 1/53 | induction factor of SMN protein distribution to CBs (DMSO = 1) ([1]; compounds diluted to 1/1000 compared with examples 1 and 2, FIG. 1): 1.2; snRNPs at the level of the CBs (immortalized SMA cells): significant increase; maximum plasma level [2]: approximately 81±16 nanograms/ml; maximum plasma level ([2]; converted from ng/ml): approximately 170±34 nM; elimination half-life [2]: long |
| NCC1(CC(=O)O)CCCCC1 [Gabapentin, 2-[1-(aminomethyl)cyclohexyl]acetic acid] | approximately 3.3 | 4.4 ± 1.0 | 1/55 | EC50 ([1]; Homo sapiens, Fibroblast): 210 ± 38 nM |
| Nc1nc2ccc(OC(F)(F)F)cc2s1 [Riluzole] | – | – | – | improvement of patient prognosis [3]: 30% |
| CC(C)C[C@H](CN)CC(=O)O [pregabalin] | 1.7 | – | – | – |
